Measurements published in publication PMC11173485, “Connecting GSK-3β Inhibitory Activity with IKK-β or ROCK-1 Inhibition to Target Tau Aggregation and Neuroinflammation in Alzheimer’s Disease—Discovery, In Vitro and In Cellulo Activity of Thiazole-Based Inhibitors” (Molecules, 2024).

Experiments:
[1] = Cytotoxicity, PrestoBlue cell viability assay in BV-2 cells; assay type: cell-based, mouse; settings: mouse, BV-2 microglial cells, 24 h; for viability at 24 h, 100 µM: 100 µM (log C -4); for viability at 24 h, 100 µM / viability at 24 h, 1 µM / viability at 24 h, 10 µM / viability at 24 h, 50 µM / viability at 24 h, 0.1 µM: read-out: immunotoxicity in BV-2 cells, % of cell viability; for IC50 at 24 h: PrestoBlue, mean ± SEM, read-out: Cytotoxicity in BV-2 Cells (IC50 x¯ ± SEM µM); for viability at 24 h, 1 µM: 1 µM (log C -6); for viability at 24 h, 10 µM: 10 µM (log C -5); for viability at 24 h, 50 µM: 50 µM (log C -4.3)
Method: (§1) We assessed their cytotoxic effects at five concentrations (0.1, 1, 10, 50, and 100 µM) in HT-22 (mouse hippocampal neuronal cells) and BV-2 (mouse microglial cells) cell lines using a fluorometric assay with PrestoBlue™ cell viability reagent (Table 4, Table S2 in the SI).
(§2) Mouse microglial cells (BV-2) were a generous gift from Professor Bozena Kaminska-Kaczmarek of the Laboratory of Molecular Neurobiology, Neurobiology Center, Nencki Institute of Experimental Biology, Polish Academy of Sciences, Warsaw, Poland. Cells were cultured in Dulbecco’s modified Eagle’s Medium-high glucose (DMEM, Glutamx Thermo Fisher, Waltham, MA, USA) supplemented with 10% inactivated fetal bovine serum (Thermo Fisher), 100 IU/mL penicillin (Merck), and 100 µg/mL streptomycin (Merck). Cells were cultured in flasks (area 175 cm^2, Nunc) and incubated at 37 °C, 5% CO2. To evaluate the level of NO, IL-6, and TNF-α and the effectiveness of the compounds tested, BV-2 microglia cells were cultured in 96-well culture plates (5 × 10^4 cells per well, Falcon). For the measurement of cell viability and cell membrane damage, cells were placed in 96-well culture plates (2 × 10^4 cells per well, Falcon). Before the tests, cells were grown for 24 h in the incubator (37 °C, 5% CO2). Mouse Hippocampal Neuronal Cell Line (HT-22) was a generous gift from Dr Bartosz Pomierny of the Department of Biochemical Toxicology, Jagiellonian University Medical College, Krakow, Poland. Cells were cultured in Dulbecco’s modified Eagle’s Medium-high glucose (DMEM, Glutamx Thermo Fisher) supplemented with 10% inactivated fetal bovine serum (Thermo Fisher), 100 IU/mL penicillin (Merck), and 100 µg/mL streptomycin (Merck). Cells were cultured in flasks (area 175 cm^2, Nunc) and incubated at 37 °C, 5% CO2. For the measurement of cell viability and neuroprotective effects against okadaic acid, cells were placed in 96-well culture plates (2 × 10^4 cells per well, Falcon). Before the tests, cells were grown for 24 h in the incubator (37 °C, 5% CO2).
(§3) Cell viability was evaluated using the PrestoBlue reagent (Thermo Fisher), according to the manufacturer’s procedures. Following 24 h of incubation with the tested molecule, PrestoBlue reagent was added to a microplate well in an amount equal to one-tenth of the remaining medium volume. The resulting mixture was incubated for 15 min at 37 °C, and the fluorescence intensity (EX 530; EM 580 nm) was measured using the plate reader POLARstar Omega, (BMG Labtech, Ortenberg, Germany). The results (viability values) are provided as a percentage of live cells with respect to DMSO (control sample).
(§4) Cytotoxic effects of selected inhibitors in HT-22 mouse hippocampal neuronal cells and BV-2 mouse microglial cells
(§5) Table S2. Cytotoxic effects of selected inhibitors in HT-22 mouse hippocampal neuronal cells and BV-2 mouse microglial cells. neurotoxicity in HT-22 cellsa immunotoxicity in BV-2 cellsa […]
(§6) a % of cell viability at the given concentration of tested compound; mean value ± standard deviation (SD) of triplicates; b half maximal inhibitory concentration of the tested compound; mean value ± standard error of the mean (SEM) of triplicates; c data obtained in log C of 39 of -8.5; -7.5; -6.5; -5.5; -5, respectively; d data obtained in log C of 49 of -7.5; -6.5; -5.5; -4.5; -4. respectively; nt, not tested.

[2] = system: BV-2 (mouse microglial cells); test: as above; assay type: cell-based; settings: for effect on cell viability in BV-2 cells (in words): 0.1, 1, 10, 50, and 100 µM
Method: as §1, §2, §3, §4, §5, §6

GSK-3β = GSK-3β (Homo sapiens, UniProt P49841); test: ADP-Glo kinase assay, GSK-3β inhibition; assay type: biochemical; design: purchased Promega; settings: mean ± SEM; ATP 25 µM
Chain of GSK-3β (P49841 whole entry): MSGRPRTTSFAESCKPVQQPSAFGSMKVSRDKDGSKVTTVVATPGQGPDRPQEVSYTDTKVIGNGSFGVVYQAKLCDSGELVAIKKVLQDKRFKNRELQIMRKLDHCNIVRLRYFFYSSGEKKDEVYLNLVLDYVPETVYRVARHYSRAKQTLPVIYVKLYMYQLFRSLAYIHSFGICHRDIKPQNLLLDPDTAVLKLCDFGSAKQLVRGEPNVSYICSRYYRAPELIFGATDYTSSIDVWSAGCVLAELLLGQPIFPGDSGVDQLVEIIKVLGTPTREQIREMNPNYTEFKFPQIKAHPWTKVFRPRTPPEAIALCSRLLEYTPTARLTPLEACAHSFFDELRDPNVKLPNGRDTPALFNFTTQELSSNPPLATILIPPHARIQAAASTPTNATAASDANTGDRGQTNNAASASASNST
Source text: We evaluated the inhibitory activity of the final compounds against GSK-3β, IKK-β, and ROCK-1 kinases using the commercially available ADP-Glo™ kinase assay. The method was based on the measurement of luminescence that correlates with kinase activity. […] The latter are inhibitors of the kinases of interest and were integral to the design of our studies.
Promega’s Kinase Enzyme Systems (Promega; Madison, WI, USA) were used to determine the activities of the tested compounds against the human recombinant kinases GSK-3β, IKK- β, and ROCK-1. The assays were performed according to the provided manufacturer’s instruction, based on the optimized conditions of the enzymatic reactions, using the low-volume, white polystyrene, 384-well plates. The ADP-Glo™ Assay (Promega; Madison, WI, USA) was used for bioluminescent detection of the kinase activity. Stock solutions of the tested compounds in DMSO (1mM) were diluted with the Kinase Assay Buffer before use (40 mM Tris, pH 7.5, enriched with 50 µM dithiothreitol; DTT), giving the final desired concentrations. The kinase enzymes, substrates, and ATP solutions were also diluted with the assay buffer prior to use. The GSK-3β, IKK-β, and ROCK-1 substrates were derived from human muscle glycogen synthase 1, human IkBA, and human 40S ribosomal protein S6, respectively. The assay procedure was as follows: At first, the appropriate kinase enzyme (GSK-3β: 10 ng per well; IKK-β: 45 ng per well; ROCK-1: 24 ng per well) was incubated with the tested sample (10 µM in well) for 5 min. The DMSO solution (1% in well) was used in the blank samples instead of the tested inhibitors. After the incubation period, ATP (25 µM per well in the case of GSK-3β and IKK-β kinases; 5 µM per well in the case of ROCK-1 kinase) and an appropriate enzyme substrate (0.2 µg/µL in well) were added to start the enzymatic reaction. The reaction mixture was kept at room temperature for 1 h; then, the ADP-Glo™ reagent was added, to terminate the kinase reaction and deplete any remaining ATP. After 40 min, a second reagent (Kinase Detection Reagent) was applied to convert the obtained ADP to ATP and to generate light from the newly synthesized ATP using a luciferase/luciferin reaction. The mixture was incubated for another 30 min at room temperature before the luminescence was measured. The calculations of the percent of kinases’ inhibition by tested compounds were based on the equation 100 − (S/B) × 100; S and B are the enzyme activities with and without the tested sample, respectively. […] Each compound was evaluated in two independent experiments, with every data point collected in duplicate.

| IC50 (GSK-3β) | SMILES | viability at 24 h, 100 µM [1] | IC50 at 24 h [1] | effect on cell viability in BV-2 cells (in words) [2] | effect on viability of BV-2 cells at concentrations up to 10 µM (in words) ([2]; up to 10 µM) | viability at 24 h, 1 µM [1] | viability at 24 h, 10 µM [1] | viability at 24 h, 50 µM [1] | viability at 24 h, 0.1 µM [1] |
| --- | --- | --- | --- | --- | --- | --- | --- | --- | --- |
| 10 nM | O=C1NC2(CCCC2)Nc2cc(-c3ccnc(NC(=O)C4CC4)c3)sc21 [Compound 60, N-(4-(4’-Oxo-3’,4’-dihydro-1’H-spiro[cyclopentane-1,2’-thieno [3,2-d]pyrimidin]-6’-yl)pyridin-2-yl)cyclopropanecarboxamide] | 3% | 3 µM | decreased cells’ viability |  | 101% | 9% | 3% | 108% |
| 22 nM | CC(C)C(=O)Nc1cc(-c2cc(NC(N)=O)c(C(N)=O)s2)ccn1 [Compound 48, 5-(2-Isobutyramidopyridin-4-yl)-3-ureidothiophene-2-carboxamide] |  | 21.8 ± 3.8 µM | decreased cells’ viability |  | 97% | 66% | 20% | 103% |
| 5 nM | COc1nc(-c2ccnc(NC(=O)C3CC3)c2)sc1C(N)=O [II, reference compound] | 4% | 15.4 ± 0.6 µM | decreased cells’ viability |  | 102% | 60% | 27% | 97% |

| SMILES | IC50 (GSK-3β) | viability at 24 h, 100 µM [1] | IC50 at 24 h [1] | effect on cell viability in BV-2 cells (in words) [2] | effect on viability of BV-2 cells at concentrations up to 10 µM (in words) ([2]; up to 10 µM) | viability at 24 h, 1 µM [1] | viability at 24 h, 10 µM [1] | viability at 24 h, 50 µM [1] | viability at 24 h, 0.1 µM [1] |
| --- | --- | --- | --- | --- | --- | --- | --- | --- | --- |
| NC(=O)Nc1cc(-c2ccnc(NC(=O)C3CC3)c2)sc1C(N)=O [Compound 49, 5-(2-(Cyclopropanecarboxamido)pyridin-4-yl)-3-ureidothiophene-2-carboxamide] | 20 nM | 74% | > 100 µM | no significant decrease in cell viability | did not decrease the viability of the cells |  |  |  |  |
| NC(=O)Nc1cc(-c2ccnc(NC(=O)C3CCC3)c2)sc1C(N)=O [Compound 50, 5-(2-(Cyclobutanecarboxamido)pyridin-4-yl)-3-ureidothiophene-2-carboxamide] | 34 nM | 50% | > 100 µM | no significant decrease in cell viability |  | 107% | 114% | 96% | 101% |
